Read-outs that look alike come from different tables or passages of the source.
Assays:
Assay type in all cases: cell-based
[1] = test system: MOLT-4 cells; test: Cell viability assay, MTS, 72 h, MOLT-4; details: Homo sapiens; MOLT-4 cells, 72 h, MTS
Method: (§1) Cancer cells from different tissue origins including acute lymphoblastic leukemia (MOLT4 and RS4; 11), small cell lung cancer (NCI-H146 or simply H146), and multiple myeloma (EJM and H929) were incubated with increasing concentrations of Examples 1-21 or ABT-263 for 72 h. Cell viability was measured by tetrazolium-based MTS assay. 5×10^4 to 1×10^5 suspension cells or 3×10^3 to 5×10^3 adherent cells were seeded and treated in 96-well plates for 72 h. The EC50 values of individual agents were calculated with GraphPad Prism.

[2] = test system: RS4 cells; test: Cell viability assay, MTS, 72 h, RS4;11; details: Homo sapiens
Method: as §1

[3] = test system: RS4;11 cells; test: Cell viability assay, MTS, 48 h, RS4;11; details: 48 hours, read-out: IC50 (48 hours) RS4;11
Method: (§2) Acute lymphoblastic leukemia cells (MOLT-4 and RS4; 11) or small cell lung cancer (NCI-H146 or simply H146) were incubated with increasing concentrations of Bcl-xL degraders for 48 h. Cell viability was measured by tetrazolium-based MTS assay.

[4] = test system: MOLT-4 cells; test: Cell viability assay, MTS, 48 h, MOLT-4; details: 48 hours, read-out: IC50 (48 hours) MOLT-4
Method: as §2

| IC50 [1] | IC50 [2] | Compound | IC50 [3] | IC50 [4] | further results |
| --- | --- | --- | --- | --- | --- |
| 0.111 µM | 0.096 µM | Cc1ncsc1-c1ccc([C@H](C)NC(=O)[C@@H]2C[C@@H](O)CN2C(=O)[C@@H](NC(=O)CCCCCCCCCCC(=O)NCC2(C)CCC(c3ccc(Cl)cc3)=C(CN3CCN(c4ccc(C(=O)NS(=O)(=O)c5ccc(N[C@H](CCN6CCOCC6)CSc6ccccc6)c(S(=O)(=O)C(F)(F)F)c5)cc4)CC3)C2)C(C)(C)C)cc1 (stereo partly drawn) [Compound 55, N^1-((4′-chloro-4-methyl-6-((4-(4-(((4-(((R)-4-morpholino-1-(phenylthio)butan-2-yl)amino)-3-((trifluoromethyl)sulfonyl)phenyl)sulfonyl)carbamoyl)phenyl)piperazin-1-yl)methyl)-2,3,4,5-tetrahydro-[1,1′-biphenyl]-4-yl)methyl)-N^2—((S)-1-((2S,4R)-4-hydroxy-2-(((S)-1-(4-(4-methylthiazol-5-yl)phenyl)ethyl)carbamoyl)pyrrolidin-1-yl)-3,3-dimethyl-1-oxobutan-2-yl)dodecanediamide] |  |  |  |
| 0.124 µM | 0.043 µM | Cc1ncsc1-c1ccc([C@H](C)NC(=O)[C@@H]2C[C@@H](O)CN2C(=O)[C@@H](NC(=O)CCCCCCCC(=O)NCC2(C)CCC(c3ccc(Cl)cc3)=C(CN3CCN(c4ccc(C(=O)NS(=O)(=O)c5ccc(N[C@H](CCN6CCOCC6)CSc6ccccc6)c(S(=O)(=O)C(F)(F)F)c5)cc4)CC3)C2)C(C)(C)C)cc1 (stereo partly drawn) [Compound 52, N^1-((4′-chloro-4-methyl-6-((4-(4-(((4-(((R)-4-morpholino-1-(phenylthio)butan-2-yl)amino)-3-((trifluoromethyl)sulfonyl)phenyl)sulfonyl)carbamoyl)phenyl)piperazin-1-yl)methyl)-2,3,4,5-tetrahydro-[1,1′-biphenyl]-4-yl)methyl)-N^9—((S)-1-((2S,4R)-4-hydroxy-2-(((S)-1-(4-(4-methylthiazol-5-yl)phenyl)ethyl)carbamoyl)pyrrolidin-1-yl)-3,3-dimethyl-1-oxobutan-2-yl)nonanediamide] |  |  |  |

The next lines start with the compound.

| Compound | IC50 [1] | IC50 [2] | IC50 [3] | IC50 [4] | further results |
| --- | --- | --- | --- | --- | --- |
| Cc1ncsc1-c1ccc([C@H](C)NC(=O)[C@@H]2C[C@@H](O)CN2C(=O)[C@@H](NC(=O)CCCCCCC(=O)NCC2(C)CCC(c3ccc(Cl)cc3)=C(CN3CCN(c4ccc(C(=O)NS(=O)(=O)c5ccc(N[C@H](CCN6CCOCC6)CSc6ccccc6)c(S(=O)(=O)C(F)(F)F)c5)cc4)CC3)C2)C(C)(C)C)cc1 (stereo partly drawn) [Compound 51, N^1-((4′-chloro-4-methyl-6-((4-(4-(((4-(((R)-4-morpholino-1-(phenylthio)butan-2-yl)amino)-3-((trifluoromethyl)sulfonyl)phenyl)sulfonyl)carbamoyl)phenyl)piperazin-1-yl)methyl)-2,3,4,5-tetrahydro-[1,1′-biphenyl]-4-yl)methyl)-N^8—((S)-1-((2S,4R)-4-hydroxy-2-(((S)-1-(4-(4-methylthiazol-5-yl)phenyl)ethyl)carbamoyl)pyrrolidin-1-yl)-3,3-dimethyl-1-oxobutan-2-yl)octanediamide] | 0.142 µM | 0.047 µM |  |  |  |
| Cc1ncsc1-c1ccc([C@H](C)NC(=O)[C@@H]2C[C@@H](O)CN2C(=O)[C@@H](NC(=O)COCCOCCOCCOCCOC(=O)N2CCC(c3ccc(Cl)cc3)=C(CN3CCN(c4ccc(C(=O)NS(=O)(=O)c5ccc(N[C@H](CCN6CCOCC6)CSc6ccccc6)c(S(=O)(=O)C(F)(F)F)c5)cc4)CC3)C2)C(C)(C)C)cc1 [Compound 36, (S)-16-((2S,4R)-4-hydroxy-2-(((S)-1-(4-(4-methylthiazol-5-yl)phenyl)ethyl)carbamoyl)pyrrolidine-1-carbonyl)-17,17-dimethyl-14-oxo-3,6,9,12-tetraoxa-15-azaoctadecyl 4-(4-chlorophenyl)-5-((4-(4-(((4-(((R)-4-morpholino-1-(phenylthio)butan-2-yl)amino)-3-((trifluoromethyl)sulfonyl)phenyl)sulfonyl)carbamoyl)phenyl)piperazin-1-yl)methyl)-3,6-dihydropyridine-1(2H)-carboxylate] | 0.342 µM | 1.75 µM |  |  |  |
| Cc1ncsc1-c1ccc([C@H](C)NC(=O)[C@@H]2C[C@@H](O)CN2C(=O)[C@@H](NC(=O)CCCN2CCN(CC3(C)CCC(c4ccc(Cl)cc4)=C(CN4CCN(c5ccc(C(=O)NS(=O)(=O)c6ccc(N[C@H](CCN7CCOCC7)CSc7ccccc7)c(S(=O)(=O)C(F)(F)F)c6)cc5)CC4)C3)CC2)C(C)(C)C)cc1 (stereo partly drawn) [compound 68, (2S,4R)-1-((2S)-2-(4-(4-((4′-chloro-4-methyl-6-((4-(4-(((4-(((R)-4-morpholino-1-(phenylthio)butan-2-yl)amino)-3-((trifluoromethyl)sulfonyl)phenyl)sulfonyl)carbamoyl)phenyl)piperazin-1-yl)methyl)-2,3,4,5-tetrahydro-[1,1′-biphenyl]-4-yl)methyl)piperazin-1-yl)butanamido)-3,3-dimethylbutanoyl)-4-hydroxy-N—((S)-1-(4-(4-methylthiazol-5-yl)phenyl)ethyl)pyrrolidine-2-carboxamide] |  |  |  |  | IC50 ([3]; Homo sapiens, RS4-11, 48 h): 0.15 to 0.5 µM; IC50 ([4]; Homo sapiens, MOLT-4, 48 h): > 0.5 µM |
| CC1(CNC(=O)CCCCNc2cccc3c2C(=O)N(C2CCC(=O)NC2=O)C3=O)CCC(c2ccc(Cl)cc2)=C(CN2CCN(c3ccc(C(=O)NS(=O)(=O)c4ccc(N[C@H](CCN5CCOCC5)CSc5ccccc5)c(S(=O)(=O)C(F)(F)F)c4)cc3)CC2)C1 (stereo partly drawn) [compound 70, 4-(4-((4′-chloro-4-((5-((2-(2,6-dioxopiperidin-3-yl)-1,3-dioxoisoindolin-4-yl)amino)pentanamido)methyl)-4-methyl-3,4,5,6-tetrahydro-[1,1′-biphenyl]-2-yl)methyl)piperazin-1-yl)-N-((4-(((R)-4-morpholino-1-(phenylthio)butan-2-yl)amino)-3-((trifluoromethyl)sulfonyl)phenyl)sulfonyl)benzamide] |  |  |  |  | IC50 ([3]; Homo sapiens, RS4-11, 48 h): 0.05 to 0.15 µM; IC50 ([4]; Homo sapiens, MOLT-4, 48 h): 0.05 to 0.15 µM |
| (2S,4R)-1-((S)-2-(4-(4-(4-chlorophenyl)-5-((4-(4-(((4-(((R)-4-morpholino-1-(phenylthio)butan-2-yl)amino)-3-((trifluoromethyl)sulfonyl)phenyl)sulfonyl)carbamoyl)phenyl)piperazin-1-yl)methyl)-3,6-dihydropyridin-1(2H)-yl)-4-oxobutanamido)-3,3-dimethylbutanoyl)-4-hydroxy-N—((S)-1-(4-(4-methylthiazol-5-yl)phenyl)ethyl)pyrrolidine-2-carboxamide [Example 1] |  |  | 0.15 to 0.5 µM | 0.15 to 0.5 µM |  |
| (2S,4R)-1-((S)-2-(7-(4-(4-chlorophenyl)-5-((4-(4-(((4-(((R)-4-morpholino-1-(phenylthio)butan-2-yl)amino)-3-((trifluoromethyl)sulfonyl)phenyl)sulfonyl)carbamoyl)phenyl)piperazin-1-yl)methyl)-3,6-dihydropyridin-1(2H)-yl)-7-oxoheptanamido)-3,3-dimethylbutanoyl)-4-hydroxy-N—((S)-1-(4-(4-methylthiazol-5-yl)phenyl)ethyl)pyrrolidine-2-carboxamide [Example 2] |  |  | 0.15 to 0.5 µM | 0.15 to 0.5 µM |  |
| (2S,4R)-1-((S)-2-(10-(4-(4-chlorophenyl)-5-((4-(4-(((4-(((R)-4-morpholino-1-(phenylthio)butan-2-yl)amino)-3-((trifluoromethyl)sulfonyl)phenyl)sulfonyl)carbamoyl)phenyl)piperazin-1-yl)methyl)-3,6-dihydropyridin-1(2H)-yl)-10-oxodecanamido)-3,3-dimethylbutanoyl)-4-hydroxy-N—((S)-1-(4-(4-methylthiazol-5-yl)phenyl)ethyl)pyrrolidine-2-carboxamide [Example 5] |  |  | < 0.05 µM | < 0.05 µM |  |
